Experimental data taken from patent US6335323B1, “Compositions for the treatment of peripheral neuropathies containing antidepressants and/or monoamine oxidase inhibitors and/or vitamin B12 and/or precursors or inducers of a neurotransmitter” (The WWK Trust, priority 1996, dated 2002).

Tests used:
diabetic neuropathy [1] = assay: Clinical case reports of patients with diabetic neuropathy; format: in vivo, human; details: single patient case reports; result in words
Excerpt: The onset of neuropathy was thought to be due to poor control of diabetes. Neuropathic symptoms increased in severity over several years with development of severe diabetic neuropathy including diabetic amyotrophy, painful neuropathy with spasm, diabetic autonomic neuropathy and decreased sensation in the extremities, with numbing and loss of vibration sense. Electromyography confirmed the diagnosis of diabetic neuropathy.
A person with non-insulin dependent diabetes with very severe diabetic neuropathy, including diabetic amyotrophy and bedbound, resistant to current therapies, was commenced on vitamin B12 injections (1 mg at two-week intervals) and L-phenylalanine (as a metabolite of aspartame) 500 mg twice a day.
This case studied here is of the same person with diabetic neuropathy as in case #1, but after the original observation in case #1. The patient was subsequently continued on the same vitamin B12 injections and phenylalanine (500 mg twice daily) only.
A person with non-insulin dependent diabetes for 15 years with reasonable control, developed peripheral painful diabetic neuropathy of two months duration. […]
A person had severe diabetic peripheral neuropathy and resultant Charcot foot joints. […] Vibration sense initially could not be detected at a level below the knee.

diabetic neuropathy [2] = details: cited from earlier work; for effectiveness against diabetic neuropathy symptoms: prior art statement
[3] = system: vitamin B12 neuropathy and mild alcoholic neuropathy; assay: Clinical case report, vitamin B12 neuropathy and mild alcoholic neuropathy (Case #4); format: in vivo, human; details: result in words
Excerpt: A person with vitamin B12 neuropathy and mild alcoholic neuropathy was studied. Clinical progress with vitamin B12 injections alone was insignificant. […] Previously they required the assistance of another person to walk.

[4] = system: neuropathy related to HIV; assay: Clinical case report, HIV related peripheral neuropathy (Case #9); format: in vivo, human; details: result in words
Protocol: A person was HIV positive and complained of moderate peripheral neuropathy including painful neuropathy. They also had mild diabetes of short duration but clinically their neuropathy was diagnosed as that related to HIV. […] They were additionally commenced on L-phenylalanine 500 mg twice daily, whereafter they reported an approximate further 50% improvement in the symptoms of their painful neuropathy.

Row | Compound | clinical response of diabetic neuropathy signs and symptoms (diabetic neuropathy [1]) | effectiveness against diabetic neuropathy symptoms (diabetic neuropathy [2]) | further results
1 | NC(=O)N1c2ccccc2C=Cc2ccccc21 [carbemazepine] | ineffective | only to be mildly effective | –
2 | CCCCC/C=C\C/C=C\C/C=C\CCCCC(=O)O [gamolenic acid] | – | may reduce symptoms | progression of abnormalities in nerve conduction studies (diabetic neuropathy [2]; recent clinical trials): prevent the progression
3 | vitamin B12 | – | – | clinical progress [3]: insignificant
4 | Cc1cccc(C)c1OCC(C)N (centres unmarked) [mexilitene] | – | only to be mildly effective | –
5 | CN(C)CC/C=C1\c2ccccc2CSc2ccccc21 [dothiepin] | mild beneficial effect | – | –
6 | CN(C)CCC=C1c2ccccc2CCc2ccccc21 [amitriptyline] | – | – | clinical effect on neuropathy [4]: some mild beneficial effects
